Results taken from paper PMC5053523, “In Vitro Antibacterial Activity of Rhodanine Derivatives against Pathogenic Clinical Isolates” (PLoS ONE, 2016).
Values after ≈ are worked out from the molar mass of the structure shown. Read-outs that look alike come from different tables or passages of the source.

Experiments:
Escherichia coli O157:H7 [1] = assay: MIC with/without PMBN, Escherichia coli O157:H7; assay type: cell-based
Description: (§1) The MIC of the rhodanines and control antibiotics, in the presence of a sub-inhibitory concentration of colistin or polymixin B nonapeptide (PMBN), against Gram-negative bacteria was evaluated as described before. The antibacterial activity of the rhodanines was further investigated against E. coli SM1411Δ acrAB, a strain that is deficient in the multidrug-resistant AcrAB efflux pump, as described before.

Klebsiella pneumoniae = assay: MIC with/without sub-MIC colistin, Klebsiella pneumoniae; assay type: cell-based
Description: as §1

Mycobacterium smegmatis = assay: Broth microdilution MIC/MBC, Mycobacterium smegmatis; assay type: cell-based; details: Mycolicibacterium smegmatis, ATCC14468, M. Smegmatis ATCC 14468
Escherichia coli Δ acrAB = assay: MIC against E. coli 1411 and AcrAB efflux pump deficient E. coli SM1411Δ acrAB; assay type: cell-based
Description: as §1

Bacillus Strains = assay: Broth microdilution MIC50/MIC90 and MIC range, Bacillus strains panel; assay type: cell-based, Bacillus spp.; details: 10 Bacillus strains
From the text: The broth microdilution technique was used, followed by subculturing on agar plates that were rhodanine—free. […] The MICs reported represent the lowest concentration of each compound necessary to inhibit bacterial growth and the MBCs represent the lowest concentration required to reduce the initial bacterial inoculum by ≥ 99.9%.

Acinetobacter baumannii = assay: MIC with/without sub-MIC colistin, Acinetobacter baumannii; assay type: cell-based
Description: as §1

Clostridium difficile = assay: MIC against Clostridium difficile, anaerobic broth dilution; assay type: cell-based; details: Clostridioides difficile
Description: Clinical isolates of C. difficile were cultured on anaerobic blood agar and incubated anaerobically using container gas pack system at 37° C for 48 hours. The colonies were then suspended in pre-reduced phosphate buffered saline (PBS) and adjusted to 0.5 McFarland standard then diluted 1:300 in pre-reduced Supplemented Brain Heart Infusion broth. The bacterial suspension was then transferred to each well of 96-well plates, the drugs were added to the first row of wells in the required concentrations and serially diluted along the plates. The plates were incubated again anaerobically using container gas pack system at 37° C for 48 hours. The (MIC) recorded was the lowest concentration of the drug showing no visible growth of the bacteria.

Escherichia coli O157:H7 [2] = assay: MIC with/without sub-MIC colistin, Escherichia coli O157:H7; assay type: cell-based
Description: as §1

B. cereus = assay: Broth microdilution MIC/MBC, B. cereus; assay type: cell-based; details: Bacillus cereus; for MBC: read-out: MBC; for MIC: read-out: MIC
From the text: The broth microdilution technique was used, followed by subculturing on agar plates that were rhodanine—free.

[3] = tested on: vancomycin resistant enterococci (VRE) E. faecium; assay: Broth microdilution MIC/MBC, VRE E. faecium; assay type: cell-based; details: for MIC: read-out: MIC
B. licheniformis = assay: Broth microdilution MIC/MBC, B. licheniformis; assay type: cell-based; details: Bacillus licheniformis; for MBC: read-out: MBC; for MIC: read-out: MIC
[4] = tested on: Vancomycin Resistant Staphylococcus aureus (VRSA); assay: Broth microdilution MIC/MBC, VRSA; assay type: cell-based; details: for MBC / MIC: VRSA
Candida albicans = assay: MIC against Candida albicans; assay type: cell-based; details: table prints none, read-out: MIC
[5] = NRS201, B. cereus NRS 201 NR-2488
[6] = E. faecium HM 968 Strain ERV102
[7] = E. faecium NR31914 Strain E0120
[8] = E. faecium Patient #1–1 NR-31903
[9] = NCIB9375, B. licheniformis Gibson 46 (NCIB 9375) NR-2494
[10] = NRS712, B. licheniformis NRS 712 NR-2499

O=C(O)[C@H](Cc1ccccc1)N1C(=O)/C(=C/c2cccc(Oc3ccc(Cl)c(Cl)c3)c2)SC1=S [Rh 1]
MIC (Escherichia coli O157:H7 [1]; Escherichia coli O157:H7 ATCC 35150, PMBN (+) 4 μg/mL, read-out: MIC): 8 µM (≈ 4.24 µg/mL)
MIC (Escherichia coli O157:H7 [1]; Escherichia coli O157:H7 ATCC 700728, PMBN (+) 4 μg/mL, read-out: MIC): >64 µM
MIC (Escherichia coli O157:H7 [1]; Escherichia coli, ATCC35150): > 256 µM
MIC (Escherichia coli O157:H7 [1]; Escherichia coli, ATCC700728): > 128 µM
MIC (Klebsiella pneumoniae; Klebsiella pneumoniae ATCC BAA 2146, colistin (+) […]): >64 µM
MIC (Klebsiella pneumoniae; Klebsiella pneumoniae, BAA2146): > 128 µM
MBC (Mycobacterium smegmatis; read-out: MBC): 8 µM (≈ 4.24 µg/mL)
MIC (Mycobacterium smegmatis; read-out: MIC): 4 µM (≈ 2.12 µg/mL)
MIC (Escherichia coli Δ acrAB; E.coli 1411): > 64 µM
MIC (Escherichia coli Δ acrAB; E.coli 1411 SM (Δ acrAB, AcrAB efflux pump deficient)): > 64 µM
MIC50 (Bacillus Strains): 4 µM (≈ 2.12 µg/mL)
MIC90 (Bacillus Strains): 4 µM (≈ 2.12 µg/mL)
MIC (Acinetobacter baumannii; Acinetobacter baumannii ATCC BAA747, colistin (+) […], read-out: MIC): >64 µM
MIC (Acinetobacter baumannii; Acinetobacter baumannii ATCC BAA19606, colistin (+) […], read-out: MIC): >64 µM
MIC (Acinetobacter baumannii; Acinetobacter baumannii, ATCCBAA747): > 128 µM
MIC (Acinetobacter baumannii; Acinetobacter baumannii, ATCCBAA19606): > 128 µM
MIC (Clostridium difficile; C. difficile HM-88): 4 µM (≈ 2.12 µg/mL)
MIC (Clostridium difficile; C. difficile HM-745): 2 µM (≈ 1.06 µg/mL)
MIC (Clostridium difficile; C. difficile HM-746): 4 µM (≈ 2.12 µg/mL)
MIC (Clostridium difficile; C. difficile Isolate-1 NR-13427): 4 µM (≈ 2.12 µg/mL)
MIC (Clostridium difficile; C. difficile Toxigenic Strain P8 NR-32888): 4 µM (≈ 2.12 µg/mL)
MIC (Escherichia coli O157:H7 [2]; Escherichia coli O157:H7 ATCC 35150, colistin (+) […], read-out: MIC): >64 µM
MIC (Escherichia coli O157:H7 [2]; Escherichia coli O157:H7 ATCC 700728, colistin (+) […], read-out: MIC): >64 µM
MIC (Escherichia coli O157:H7 [2]; Escherichia coli, ATCC35150): > 128 µM
MIC (Escherichia coli O157:H7 [2]; Escherichia coli, ATCC700728): > 128 µM
MBC (B. cereus; B. cereus BAG1O-2 NR-28582): 4 µM (≈ 2.12 µg/mL)
MIC (B. cereus; B. cereus BAG1O-2 NR-28582): 4 µM (≈ 2.12 µg/mL)
MBC (B. cereus; B. cereus BAG1X1-1 NR-28575): 2 µM (≈ 1.06 µg/mL)
MIC (B. cereus; B. cereus BAG1X1-1 NR-28575): 2 µM (≈ 1.06 µg/mL)
MBC (B. cereus; B. cereus BAG1X2-1 NR-28578): 4 µM (≈ 2.12 µg/mL)
MIC (B. cereus; B. cereus BAG1X2-1 NR-28578): 4 µM (≈ 2.12 µg/mL)
MBC (B. cereus; B. cereus G9241 NR-9564): 4 µM (≈ 2.12 µg/mL)
MIC (B. cereus; B. cereus G9241 NR-9564): 4 µM (≈ 2.12 µg/mL)
MBC (B. cereus; B. cereus VD014 NR-22141): 4 µM (≈ 2.12 µg/mL)
MIC (B. cereus; B. cereus VD014 NR-22141): 4 µM (≈ 2.12 µg/mL)
MBC (B. cereus; B. cereus VD115 NR-22148): 4 µM (≈ 2.12 µg/mL)
MIC (B. cereus; B. cereus VD115 NR-22148): 4 µM (≈ 2.12 µg/mL)
MBC (B. cereus; B. cereus VD148 NR-22150): 4 µM (≈ 2.12 µg/mL)
MIC (B. cereus; B. cereus VD148 NR-22150): 4 µM (≈ 2.12 µg/mL)
MBC (B. cereus; [5]): 4 µM (≈ 2.12 µg/mL)
MIC (B. cereus; [5]): 4 µM (≈ 2.12 µg/mL)
MBC ([3]; E. faecium E417 HM-965): > 64 µM
MIC ([3]; E. faecium E417 HM-965): 8 µM (≈ 4.24 µg/mL)
MBC ([3]; E. faecium E1071 NR-28978): 64 µM (≈ 33.9 µg/mL)
MIC ([3]; E. faecium E1071 NR-28978): 8 µM (≈ 4.24 µg/mL)
MBC [3, 6]: 32 µM (≈ 17 µg/mL)
MIC [3, 6]: 8 µM (≈ 4.24 µg/mL)
MBC [3, 7]: 64 µM (≈ 33.9 µg/mL)
MIC [3, 7]: 8 µM (≈ 4.24 µg/mL)
MBC [3, 8]: 16 µM (≈ 8.49 µg/mL)
MIC [3, 8]: 4 µM (≈ 2.12 µg/mL)
MBC (B. licheniformis; [9]): 2 µM (≈ 1.06 µg/mL)
MIC (B. licheniformis; [9]): 2 µM (≈ 1.06 µg/mL)
MBC (B. licheniformis; [10]): 4 µM (≈ 2.12 µg/mL)
MIC (B. licheniformis; [10]): 4 µM (≈ 2.12 µg/mL)
MIC50 ([4]; 15 VRSA strains, read-out: MIC 50): 8 µM (≈ 4.24 µg/mL)
MIC90 ([4]; 15 VRSA strains, read-out: MIC 90): 8 µM (≈ 4.24 µg/mL)
MBC ([4]; VRSA 1, read-out: MBC): 8 µM (≈ 4.24 µg/mL)
MIC ([4]; VRSA 1, read-out: MIC): 8 µM (≈ 4.24 µg/mL)
MBC ([4]; VRSA 2, read-out: MBC): 8 µM (≈ 4.24 µg/mL)
MIC ([4]; VRSA 2, read-out: MIC): 8 µM (≈ 4.24 µg/mL)
MBC ([4]; VRSA 3a, read-out: MBC): 16 µM (≈ 8.49 µg/mL)
MIC ([4]; VRSA 3a, read-out: MIC): 8 µM (≈ 4.24 µg/mL)
MBC ([4]; VRSA 3b, read-out: MBC): 8 µM (≈ 4.24 µg/mL)
MIC ([4]; VRSA 3b, read-out: MIC): 8 µM (≈ 4.24 µg/mL)
MBC ([4]; VRSA 4, read-out: MBC): 8 µM (≈ 4.24 µg/mL)
MIC ([4]; VRSA 4, read-out: MIC): 8 µM (≈ 4.24 µg/mL)
MBC ([4]; VRSA 5, read-out: MBC): 16 µM (≈ 8.49 µg/mL)
MIC ([4]; VRSA 5, read-out: MIC): 8 µM (≈ 4.24 µg/mL)
MBC ([4]; VRSA 6, read-out: MBC): 8 µM (≈ 4.24 µg/mL)
MIC ([4]; VRSA 6, read-out: MIC): 4 µM (≈ 2.12 µg/mL)
MBC ([4]; VRSA 7, read-out: MBC): 8 µM (≈ 4.24 µg/mL)
MIC ([4]; VRSA 7, read-out: MIC): 8 µM (≈ 4.24 µg/mL)
MBC ([4]; VRSA 8, read-out: MBC): 32 µM (≈ 17 µg/mL)
MIC ([4]; VRSA 8, read-out: MIC): 4 µM (≈ 2.12 µg/mL)
MBC ([4]; VRSA 9, read-out: MBC): 32 µM (≈ 17 µg/mL)
MIC ([4]; VRSA 9, read-out: MIC): 8 µM (≈ 4.24 µg/mL)
MBC ([4]; VRSA 10, read-out: MBC): 32 µM (≈ 17 µg/mL)
MIC ([4]; VRSA 10, read-out: MIC): 8 µM (≈ 4.24 µg/mL)
MBC ([4]; VRSA 11a, read-out: MBC): 16 µM (≈ 8.49 µg/mL)
MIC ([4]; VRSA 11a, read-out: MIC): 8 µM (≈ 4.24 µg/mL)
MBC ([4]; VRSA 11b, read-out: MBC): 32 µM (≈ 17 µg/mL)
MIC ([4]; VRSA 11b, read-out: MIC): 8 µM (≈ 4.24 µg/mL)
MBC ([4]; VRSA 12, read-out: MBC): 32 µM (≈ 17 µg/mL)
MIC ([4]; VRSA 12, read-out: MIC): 8 µM (≈ 4.24 µg/mL)
MBC ([4]; VRSA 13, read-out: MBC): 32 µM (≈ 17 µg/mL)
MIC ([4]; VRSA 13, read-out: MIC): 8 µM (≈ 4.24 µg/mL)
MIC (Candida albicans; ATCC10231, C. albicans ATCC 10231, unit from abstract): > 64 µM
MIC (Candida albicans; C. albicans NR 29434, unit from abstract): > 64 µM
MIC (Candida albicans; C. albicans NR 29435, unit from abstract): > 64 µM
MIC (Candida albicans; C. albicans NR29437, unit from abstract): > 64 µM
MIC (Candida albicans; C. albicans NR29438, unit from abstract): > 64 µM
MIC (Candida albicans; C. albicans NR 29446, unit from abstract): > 64 µM
MIC (Candida albicans; C. albicans NR 29448, unit from abstract): > 64 µM
MIC (Candida albicans; C. albicans NR 29449, unit from abstract): > 64 µM
MIC (Candida albicans; C. albicans NR 29453, unit from abstract): > 64 µM
MIC (Candida albicans; C. albicans NR 294436, unit from abstract): > 64 µM
